{
  "source": "paper PMC9706920",
  "about": "“Aryloxypropanolamine targets amyloid aggregates and reverses Alzheimer-like phenotypes in Alzheimer mouse models” (Alzheimer's Research & Therapy, 2022)",
  "key": {"[1]": {"target": "T1, recombinant tau K18 aggregates (Homo sapiens, UniProt P10636)", "T1 construct": "Recombinant tau K18 fragments, […]; made in house; host or cells: Escherichia coli BL21 (DE3)", "T1 sequence (P10636 561-689)": "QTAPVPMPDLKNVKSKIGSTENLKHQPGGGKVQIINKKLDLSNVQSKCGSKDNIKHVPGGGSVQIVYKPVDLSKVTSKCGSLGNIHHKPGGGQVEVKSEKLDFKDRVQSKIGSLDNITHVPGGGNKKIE", "assay": "ThT fluorescence tau K18 disaggregation assay", "type": "biochemical", "settings": "K18 35 μM pre-aggregated 3 days, 50 and 500 μM compound for additional 3 days; concentration of the printed value not stated", "protocol": "(§1) ThT fluorescence was used to assess the in vitro inhibition of Aβ(1–42) and disaggregation of Aβ(1–42), Aβ(1–40), Aβ(pE3-42), recombinant tau K18, and tau repeats R1, R2, R3, R4 by YIAD compounds. In house synthetic Aβ(1–42) was dissolved in DMSO (1 mM, 100% DMSO) and diluted to 20-fold in deionized water to make 50 μM Aβ(1–42) stocks (5% DMSO). YIAD compounds were first dissolved in DMSO (100 mM, 100% DMSO) and serially diluted with deionized water to make YIAD stocks with concentrations of 1, 10, 100, and 1000 μM (10% DMSO). For the Aβ(1–42) inhibition assay, monomeric Aβ(1–42) stocks and YIAD stocks were co-incubated at 37°C for 3 days. For Aβ(1–42) disaggregation assay, monomeric Aβ(1–42) stocks were preincubated at 37°C for three days to form Aβ(1–42) aggregates, and subsequently, YIAD stocks were added for an additional 3 days. For Aβ(1-40) disaggregation assays, Aβ(1–40) (50 μM, 5% DMSO) was preincubated at 37°C for 3 days to induce aggregation, and co-incubated with YIAD001 and YIAD002 for an additional 3 days. […] Prior to fluorescence intensity measurement, ThT solution (5 μM) was prepared by dissolving ThT, purchased from Sigma-Aldrich (MO, USA) in 50 mM glycine buffer (pH 8.5). To quantify the effect of inhibition and disaggregation, 25 μL of all samples and 75 μL of ThT solution were loaded into a half-area 96-well black plate in triplicate."}, "[2]": {"test_system": "5XFAD mice", "assay": "6E10 immunohistochemical staining of amyloid plaques in 5XFAD mice after oral administration", "type": "in vivo, mouse", "settings": "50 mg/kg/day via drinking water, 5 weeks, 4.5-month-old female 5XFAD mice, vs vehicle", "protocol": "To test the in vivo efficacy of YIAD001 and YIAD002, female 5XFAD mice (n = 25) and female wildtype mice (n = 7) were assessed at the age of 4.5 months. YIAD compounds were dissolved in DMSO and diluted in drinking water to a final concentration of 50 mg/kg/day (5% DMSO, 5% Tween) for oral administration. The three compounds, YIAD001, YIAD002, and YIAD003, were freely administered via drinking water to 4.5-month-old 5XFAD mice (n = 6 for each group) for 5 weeks. As a control, 5% DMSO, 5% Tween in drinking water was provided ad libitum to littermate 5XFAD mice (n = 7) and wildtype mice (n = 7) for 5 weeks.\nAfter the administration period, the mice were deeply anaesthetized with 4% avertin through intraperitoneal injection and transcardially perfused with 0.9% saline. Subsequently, the mice were sacrificed for brain excision. Each collected brain was divided through the mid-sagittal section; the hippocampal and cortical regions were dissected from one half and stored at −80°C for subsequent brain lysates, while the other half was immersed in 4% paraformaldehyde (pH 7.4) for 24 h and 30% sucrose for 48 h at 4°C and subsequently deep-froze at −80°C for immunohistochemistry.\nCoronal hippocampal sections of 5XFAD mice brains (35 μm) were cut with a Cryostat (Leica, CM1860) and mounted onto glass slides. Antigen retrieval was performed by submerging slides in 1% SDS and unspecific binding was blocked through incubation in 20% horse serum in PBS for 1 h at RT. Aβ deposits were visualized through immunolabeling by anti-6E10 antibody (1:200 in PBS with 5% horse serum, Biolegend 803003) and detection by fluorescent secondary antibody (1:200 in PBS, IgG Alexa 488). Brain sections were additionally stained with Hoechst 33342. Fluorescent images of the brain sections were taken on a Leica DM2500 fluorescence microscope. Amyloid plaques were quantified using Image-J software (NIH)."}, "[3]": {"target": "T2, Aβ(pE3-42) aggregates (Homo sapiens, UniProt P05067)", "T2 construct": "Aβ(pE3-42), p[…]; made in house; host or cells: chemical synthesis (Fmoc solid phase peptide synthesis)", "T2 sequence (P05067 674-713)": "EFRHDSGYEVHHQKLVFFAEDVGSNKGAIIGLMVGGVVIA", "assay": "ThT fluorescence Aβ(pE3-42) disaggregation assay", "type": "biochemical", "settings": "Fig. 4D", "protocol": "as §1"}, "[4]": {"assay": "BBB-PAMPA", "type": "in vitro ADME", "settings": "50 μM", "protocol": "Commercially available Double-Sink PAMPA (Pion® Double sink) assay was performed using a two compartment 96-well microtiter plate and protocols specified by the manufacturer. […] Stock solutions of controls and YIAD002 were dissolved in DMSO (10 mM) and subsequently diluted to 200-fold in pION buffer (pH 7.4) to 50 μM. The donor plate of the PAMPA sandwich was loaded with 50 μM solutions, and after wetting the artificial membrane with BBB lipid solution, the acceptor plate was loaded with acceptor sink buffer. Then, the acceptor plate was placed on the donor plate and incubated at 25°C for 4 h. Compound concentration in the reference, donor, and acceptor plates were measured on a UV plate."}},
  "data": [
    {"smiles": "CCC(C)(C)c1ccc(OCC(O)CN2CCOCC2)c(C(C)(C)CC)c1.Cl", "note": "(centres unmarked) [YIAD001, 4-(3-(2,4-Di-tert-pentylphenoxy)-2-hydroxypropyl)morpholin-4-ium chloride]", "values": [
      {"measurement": "Reduction of K18 aggregates (disaggregation, ThT)", "setting": "[1]", "value": 18.06, "unit": "%"},
      {"measurement": "Number of 6E10-stained plaques", "setting": "[2]", "value": "significantly reduced"}
    ]},
    {"smiles": "CCC(C)(C)c1ccc(OCC(O)CN2CCCC2)c(C(C)(C)CC)c1.Cl", "note": "(centres unmarked) [YIAD002, 1-(3-(2,4-Di-tert-pentylphenoxy)-2-hydroxypropyl)pyrrolidin-1-ium chloride]", "values": [
      {"measurement": "Dissociative activity against Aβ(pE3-42) aggregates", "setting": "[3]", "value": "dissociative activity"},
      {"measurement": "Reduction of K18 aggregates (disaggregation, ThT)", "setting": "[1]", "value": 58.96, "unit": "%"},
      {"measurement": "BBB permeability class", "setting": "[4]; classification ranges ref 25", "value": "high BBB permeability"},
      {"measurement": "Papp at 4 h, 50 μM", "setting": "[4]; PAMPA, pH 7.4, 25°C, 4 h, read-out: Effective permeability coefficient Pe", "value": 368, "unit": "nm/s"},
      {"measurement": "Number of 6E10-stained plaques", "setting": "[2]", "value": "significantly reduced"},
      {"measurement": "Plaque area", "setting": "[2]", "value": "significant decrease"}
    ]}
  ]
}
